The source of these data is article PMC9781958, “Next-Generation Heterocyclic Electrophiles as Small-Molecule Covalent MurA Inhibitors” (Pharmaceuticals, 2022).

Each structure is given as a SMILES string. Where two headings read alike, the source gives them in different places.

A short description of data set [1]: NMR-based single-point GSH reactivity assay. The class given is physicochemical. The note with it: pH 7.4, 1H NMR. On the procedure: For the NMR assay, a 500 mM D2O stock solution was first prepared for each fragment along with an 800 mM D2O stock solution of GSH. Thereafter, a 5 mM electrophilic standard solution was prepared by adding 20 μL of stock solution to a 2 mL 100 mM potassium hydrogen phosphate/sodium hydrogen phosphate buffer solution (pH 7.4). A total of 0.5 mL of this electrophilic standard solution was placed in an NMR tube, and then the ^1H NMR was recorded. The peak values obtained during the measurement were considered the zero-point measurement or reference peaks of the reactivity study. For the reactivity measurement, 20 μL of the fragment stock solution was added to 1980 μL phosphate buffer solution (pH 7.4) along with 20 μL of GSH stock solution (final concentration = […] GSH and 5 mM fragment). The contents were vortexed until homogenization and were transferred to an NMR tube. The resulting mixture was analyzed by ^1H NMR measurements after 15 and 30 min, and 4 and 24 h. The AUC (area under the curve) values were determined via integration of the corresponding peaks in the NMR spectra.

The target of data set [2] is T1, E. coli MurA (UDP-N-acetylglucosamine 1-carboxyvinyltransferase, EC:2.5.1.7) (Escherichia coli, UniProt P0A749). Nature of the data set: MurA inhibitory assay (colorimetric malachite green method). Type of data set: biochemical. Further details: inferred from IMAC purification with imidazole elution; made in house; host or cells: Escherichia coli NiCo21(DE3). The note with it: for remaining activity at 100 µM: 0.5 h, read-out: RA% @ 100 μM MurA 30 min preincubation; for IC50 [μM] MurA: Figure 1, methylated library, 30 min preincubation. The protocol: Expression and purification of E. coli MurA (UDP-N-acetylglucosamine 1-carboxyvinyltransferase, EC:2.5.1.7) was performed according to the known procedure. Briefly, the MurA plasmid was used to transform chemically competent Escherichia coli NiCo21(DE3) (New England Biolabs, Ipswich, MA, USA). The transformant was cultured at 37 °C and 250 rpm in LB broth. Expression was induced by addition of 1 mM IPTG and cultured for an additional 3 h. Cells were harvested by centrifugation (3000× g for 10 min at 4 °C), and cell pellets were stored at −80 °C until purification. Cell pellets were resuspended in buffer 50 mM Tris (pH 8), 150 mM NaCl, and 10 % glycerol and lysed on ice by sonication. Cell debris was removed by centrifugation for 30 min (16,000× g, 4 °C, repeated twice). The lysate was loaded onto a HiTrap 1 mL IMAC HP column (Cytiva, Marlborough, MA, USA). The column was washed with buffer containing 50 mM imidazole with 20 column volumes, and the protein was eluted with buffer containing 250 mM imidazole. The eluted MurA was exchanged into proprietary buffer (50 mM Tris (pH 8), 150 mM NaCl, 10 % glycerol).
T1 sequence (P0A749 whole entry): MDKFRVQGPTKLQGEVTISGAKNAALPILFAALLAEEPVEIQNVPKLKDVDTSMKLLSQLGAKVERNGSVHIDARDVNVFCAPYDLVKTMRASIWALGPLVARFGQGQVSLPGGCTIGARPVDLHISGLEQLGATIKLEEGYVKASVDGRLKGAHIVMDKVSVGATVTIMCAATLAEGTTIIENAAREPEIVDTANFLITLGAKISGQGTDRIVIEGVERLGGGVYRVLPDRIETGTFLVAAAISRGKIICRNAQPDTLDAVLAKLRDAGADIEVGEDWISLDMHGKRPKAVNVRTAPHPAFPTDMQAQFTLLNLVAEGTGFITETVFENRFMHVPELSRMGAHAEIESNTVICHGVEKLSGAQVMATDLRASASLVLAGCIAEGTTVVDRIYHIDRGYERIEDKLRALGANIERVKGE
The inhibition of the MurA enzyme was monitored using the colorimetric malachite green method in which orthophosphate generated during the reaction is detected. The assay was performed in 96-well microplates with a final volume of 50 μL. The MurA enzyme was preincubated with the substrate UNAG (UDP-N-acetylglucosamine, Sigma, St. Louis, MO, USA) and compound for 30 min at 37 °C. […] After incubation for 15 min at 37 °C, the enzyme reaction was ended by adding Biomol® reagent (100 µL), and the absorbance was measured at 650 nm after 5 min using a microplate reader (Synergy H4, BioTek Instruments, Inc., Winooski, VT, USA). All of the experiments were run in duplicate. […] IC50 values were determined by measuring residual activities at 7 different compound concentrations and calculated using GraphPad Prism (GraphPad Software, San Diego, CA, USA).

The target in data set [3] is MurA (Escherichia coli, UniProt P0A749). Description: MurA covalent labelling, intact MS. Type of data set: binding, E. coli. The note with it: 5 mM fragment, 37 °C, 60 min (Figure S1). The protocol:
The covalent labelling procedure was conducted as described earlier with slight modifications. First, 42 μM stock solution of MurA in 20 mM HEPES at pH 7.2–7.4 with 1 mM DTT (dithiothreitol, Sigma) was filtered through a G25 desalting column, and the medium was changed to 50 mM Tris with 0.005% Triton X-100 at pH 8.0. For the activation of the enzyme, 1 mg UNAG was added as a solid to reach 40 mM concentration, and the mixture was incubated at 37 °C for 30 min. Fragments were added from a 100 mM DMSO stock diluted in the labelling solution to 5 mM. The incubation was continued at 37 °C for an additional 60 min. After the labelling, the mixture was purified on a G25 desalting column.
The molecular weights of the conjugates were identified using a Triple-TOF 5600+ hybrid Q-TOF LC/MS/MS system (Sciex, Singapore, Woodlands) equipped with a Duo Spray Ion Source coupled with a Shimadzu Prominence LC20 UFLC (Shimadzu, Kyoto, Japan) system consisting of a binary pump, an autosampler, and a thermostated column compartment. Data acquisition and processing were performed using Analyst TF software version 1.7.1 (AB Sciex Instruments, Redwood City, CA, USA). Chromatographic separation was achieved on a Thermo BetaBasic C8 (50 mm × 2.1 mm, 3 μm, 150 Å) HPLC column. […]

Data set [4] deals with T1, E. coli MurA (UDP-N-acetylglucosamine 1-carboxyvinyltransferase, EC:2.5.1.7). The following applies: read-out: MurA IC50 (µM) Non-Methylated; first-generation non-methylated heterocycles; cited from earlier work.
[5] abbreviates: Table 1, methylated heterocycles, read-out: MurA IC50 (µM) Methylated.

MurA, sequence (P0A749 whole entry, the tested form may be a part): as the sequence (P0A749 whole entry) above

For the compound `Cn1cc[n+](C)c1I` [H3+], in data set [1], the “Single point GSH reactivity (% conversion in 15 min, 16 equiv. GSH)” value worked out at 100%. Also, in data set [2], the remaining activity at 100 µM turned out to be 10.4%. Besides, the half-maximal inhibitory concentration (IC50) in data set [2] (setting [5]) worked out at 10.2 µM.
On to `C#Cc1cccc[n+]1C` [A6+], for which the IC50 in data set [2] was found to be 50 µM.
With `C#Cc1nccc[n+]1C` [D6+], the “Single point GSH reactivity (% conversion in 15 min, 16 equiv. GSH)” value in data set [1] turned out to be 100%. Further, the remaining activity at 100 µM in data set [2] came to 6.7%.
On to `C[n+]1ccsc1Br` [R2+], for which, in data set [2], the remaining activity at 100 µM is 42.8%.
As for `C[n+]1ccc(I)cc1` [C3+], the “covalent labelling of MurA by intact MS” value in data set [3] is “single and double labelling on MurA”. Moreover, in data set [2], the “IC50 [μM] MurA” value is given as “single-digit micromolar”. Moreover, the IC50 in data set [2] (setting [5]) came out at 4.5 µM.
In the case of `C[n+]1ccccc1I` [A3+], in data set [2], the IC50 was determined as 15.5 µM.
Take `C[C@@H]1O[C@@H]1P(=O)(O)O` [fosfomycin]: the IC50 in data set [4] was 0.25 ± 0.01 µM.
On to `C#Cc1cnc[n+](C)c1` [F6+], for which the remaining activity at 100 µM in data set [2] was determined as 77.8%.
In the case of `C[n+]1ccoc1I` [N3+], the “Single point GSH reactivity (% conversion in 15 min, 16 equiv. GSH)” value in data set [1] was determined as 100%. Further, the remaining activity at 100 µM in data set [2] is 1.2%.
As for `C[n+]1cccnc1I` [D3+], in data set [2], the “IC50 [μM] MurA” value was “single-digit micromolar”. Also, the IC50 in data set [2] (setting [5]) was found to be 2.99 µM. Further, in data set [2] (from IC50 values of Table 1), the “fold increase in MurA inhibitory potency of methylated versus non-methylated pair” value worked out at 100 fold.
Take `C[n+]1cccnc1Cl` [D1+]: the remaining activity at 100 µM in data set [2] is 99.1%.
Turning to `C[n+]1ccccc1Cl` [A1+], in data set [2], the IC50 was 51.6 µM.
Regarding `C[n+]1cccnc1Br` [D2+], the remaining activity at 100 µM in data set [2] came to 98.2%.
For `C#Cc1cc[n+](C)cc1` [C6+], in data set [2] (setting [5]), the IC50 came to 64.7 µM.

Broadly, the IC50 is the concentration that inhibits the measured activity by half.
